Numbers after ± are expanded uncertainties.
Experiment: cn = amount concentration of the nth substance listed, in mol/dm3
Details: 101 kPa, Liquid, Advanced Conductivity Orion 162A

C[N+](C)(C)C.O=C([O-])C(F)(F)C(F)(F)C(F)(F)C(F)(F)C(F)(F)C(F)(F)C(F)(F)F [tetramethylammonium perfluorooctanoate] + O
Details | electrical conductivity [S/m]
288.15 K, c1 = 0.001316 | 0.00725 ± 2e-05
288.15 K, c1 = 0.002597 | 0.0135 ± 3e-05
288.15 K, c1 = 0.003846 | 0.01958 ± 4e-05
288.15 K, c1 = 0.005063 | 0.0253 ± 5e-05
288.15 K, c1 = 0.00625 | 0.0306 ± 6e-05
288.15 K, c1 = 0.007407 | 0.0357 ± 7e-05
288.15 K, c1 = 0.008536 | 0.0405 ± 8e-05
288.15 K, c1 = 0.009638 | 0.0451 ± 9e-05
288.15 K, c1 = 0.01071 | 0.0494 ± 0.0001
288.15 K, c1 = 0.01176 | 0.0536 ± 0.00011
288.15 K, c1 = 0.01279 | 0.0574 ± 0.00011
288.15 K, c1 = 0.01379 | 0.0598 ± 0.00012
288.15 K, c1 = 0.01477 | 0.0611 ± 0.00012
288.15 K, c1 = 0.01573 | 0.0622 ± 0.00012
288.15 K, c1 = 0.01704 | 0.0637 ± 0.00013
288.15 K, c1 = 0.01848 | 0.0656 ± 0.00013
288.15 K, c1 = 0.02004 | 0.0675 ± 0.00014
288.15 K, c1 = 0.02171 | 0.0693 ± 0.00014
288.15 K, c1 = 0.02331 | 0.0714 ± 0.00014
288.15 K, c1 = 0.02485 | 0.0732 ± 0.00015
293.15 K, c1 = 0.001316 | 0.00808 ± 2e-05
293.15 K, c1 = 0.002597 | 0.01512 ± 3e-05
293.15 K, c1 = 0.003846 | 0.0218 ± 4e-05
293.15 K, c1 = 0.005063 | 0.0282 ± 6e-05
293.15 K, c1 = 0.00625 | 0.0341 ± 7e-05
293.15 K, c1 = 0.007407 | 0.0401 ± 8e-05
293.15 K, c1 = 0.008537 | 0.0455 ± 9e-05
293.15 K, c1 = 0.009638 | 0.0503 ± 0.0001
293.15 K, c1 = 0.01071 | 0.0551 ± 0.00011
293.15 K, c1 = 0.01176 | 0.0597 ± 0.00012
293.15 K, c1 = 0.01279 | 0.0634 ± 0.00013
293.15 K, c1 = 0.01379 | 0.0657 ± 0.00013
293.15 K, c1 = 0.01477 | 0.0675 ± 0.00014
293.15 K, c1 = 0.01573 | 0.0691 ± 0.00014
293.15 K, c1 = 0.01667 | 0.0706 ± 0.00014
293.15 K, c1 = 0.01803 | 0.0726 ± 0.00015
293.15 K, c1 = 0.01935 | 0.0745 ± 0.00015
293.15 K, c1 = 0.02063 | 0.0764 ± 0.00015
293.15 K, c1 = 0.02187 | 0.0781 ± 0.00016
293.15 K, c1 = 0.02347 | 0.0803 ± 0.00016
293.15 K, c1 = 0.025 | 0.0825 ± 0.00017
298.15 K, c1 = 0.001234 | 0.0087 ± 2e-05
298.15 K, c1 = 0.002439 | 0.01642 ± 3e-05
298.15 K, c1 = 0.003614 | 0.0236 ± 5e-05
298.15 K, c1 = 0.004762 | 0.0304 ± 6e-05
298.15 K, c1 = 0.005882 | 0.0371 ± 7e-05
298.15 K, c1 = 0.006977 | 0.0435 ± 9e-05
298.15 K, c1 = 0.008046 | 0.0498 ± 0.0001
298.15 K, c1 = 0.009091 | 0.0554 ± 0.00011
298.15 K, c1 = 0.01011 | 0.0612 ± 0.00012
298.15 K, c1 = 0.01111 | 0.0661 ± 0.00013
298.15 K, c1 = 0.01209 | 0.0713 ± 0.00014
298.15 K, c1 = 0.01304 | 0.0744 ± 0.00015
298.15 K, c1 = 0.01398 | 0.0766 ± 0.00015
298.15 K, c1 = 0.01489 | 0.0785 ± 0.00016
298.15 K, c1 = 0.01579 | 0.0801 ± 0.00016
298.15 K, c1 = 0.0171 | 0.0823 ± 0.00016
298.15 K, c1 = 0.01837 | 0.0844 ± 0.00017
298.15 K, c1 = 0.02 | 0.087 ± 0.00017
298.15 K, c1 = 0.02157 | 0.0895 ± 0.00018
298.15 K, c1 = 0.02308 | 0.092 ± 0.00018
298.15 K, c1 = 0.02453 | 0.0944 ± 0.00019
298.15 K, c1 = 0.02593 | 0.0968 ± 0.00019
303.15 K, c1 = 0.001316 | 0.00997 ± 2e-05
303.15 K, c1 = 0.002597 | 0.01874 ± 4e-05
303.15 K, c1 = 0.003846 | 0.0272 ± 5e-05
303.15 K, c1 = 0.005063 | 0.0352 ± 7e-05
303.15 K, c1 = 0.00625 | 0.0427 ± 9e-05
303.15 K, c1 = 0.007407 | 0.0498 ± 0.0001
303.15 K, c1 = 0.008537 | 0.0566 ± 0.00011
303.15 K, c1 = 0.009638 | 0.063 ± 0.00013
303.15 K, c1 = 0.01071 | 0.0691 ± 0.00014
303.15 K, c1 = 0.01176 | 0.0748 ± 0.00015
303.15 K, c1 = 0.01279 | 0.0795 ± 0.00016
303.15 K, c1 = 0.01379 | 0.0823 ± 0.00016
303.15 K, c1 = 0.01477 | 0.0844 ± 0.00017
303.15 K, c1 = 0.01573 | 0.0864 ± 0.00017
303.15 K, c1 = 0.01667 | 0.0884 ± 0.00018
303.15 K, c1 = 0.01803 | 0.0912 ± 0.00018
303.15 K, c1 = 0.01935 | 0.0938 ± 0.00019
303.15 K, c1 = 0.02063 | 0.0964 ± 0.00019
303.15 K, c1 = 0.02187 | 0.0988 ± 0.0002
303.15 K, c1 = 0.02347 | 0.1017 ± 0.0002
303.15 K, c1 = 0.025 | 0.1045 ± 0.00021
308.15 K, c1 = 0.001316 | 0.01109 ± 2e-05
308.15 K, c1 = 0.002597 | 0.0209 ± 4e-05
308.15 K, c1 = 0.003846 | 0.0302 ± 6e-05
308.15 K, c1 = 0.005063 | 0.0388 ± 8e-05
308.15 K, c1 = 0.00625 | 0.0475 ± 0.0001
308.15 K, c1 = 0.007407 | 0.0554 ± 0.00011
308.15 K, c1 = 0.008536 | 0.0626 ± 0.00013
308.15 K, c1 = 0.009638 | 0.07 ± 0.00014
308.15 K, c1 = 0.01071 | 0.077 ± 0.00015
308.15 K, c1 = 0.01176 | 0.0828 ± 0.00017
308.15 K, c1 = 0.01279 | 0.0888 ± 0.00018
308.15 K, c1 = 0.01379 | 0.0918 ± 0.00018
308.15 K, c1 = 0.01477 | 0.095 ± 0.00019
308.15 K, c1 = 0.01573 | 0.0969 ± 0.00019
308.15 K, c1 = 0.01667 | 0.0996 ± 0.0002
308.15 K, c1 = 0.01758 | 0.101 ± 0.0002
308.15 K, c1 = 0.01848 | 0.1029 ± 0.00021
308.15 K, c1 = 0.02021 | 0.1067 ± 0.00021
308.15 K, c1 = 0.02188 | 0.1102 ± 0.00022
308.15 K, c1 = 0.02347 | 0.1136 ± 0.00023
308.15 K, c1 = 0.025 | 0.1168 ± 0.00023
308.15 K, c1 = 0.02647 | 0.1208 ± 0.00024
313.15 K, c1 = 0.001316 | 0.01241 ± 3e-05
313.15 K, c1 = 0.002597 | 0.0231 ± 5e-05
313.15 K, c1 = 0.003846 | 0.0333 ± 7e-05
313.15 K, c1 = 0.005063 | 0.0428 ± 9e-05
313.15 K, c1 = 0.00625 | 0.0521 ± 0.0001
313.15 K, c1 = 0.007407 | 0.0608 ± 0.00012
313.15 K, c1 = 0.008537 | 0.0687 ± 0.00014
313.15 K, c1 = 0.009638 | 0.0765 ± 0.00015
313.15 K, c1 = 0.01071 | 0.0841 ± 0.00017
313.15 K, c1 = 0.01176 | 0.0905 ± 0.00018
313.15 K, c1 = 0.01279 | 0.0971 ± 0.00019
313.15 K, c1 = 0.01379 | 0.1009 ± 0.0002
313.15 K, c1 = 0.01477 | 0.1039 ± 0.00021
313.15 K, c1 = 0.01573 | 0.1067 ± 0.00021
313.15 K, c1 = 0.01667 | 0.1091 ± 0.00022
313.15 K, c1 = 0.01803 | 0.1125 ± 0.00023
313.15 K, c1 = 0.01935 | 0.1158 ± 0.00023
313.15 K, c1 = 0.02063 | 0.119 ± 0.00024
313.15 K, c1 = 0.02187 | 0.122 ± 0.00024
313.15 K, c1 = 0.02347 | 0.1258 ± 0.00025
313.15 K, c1 = 0.025 | 0.1294 ± 0.00026
318.15 K, c1 = 0.001316 | 0.01322 ± 3e-05
318.15 K, c1 = 0.002597 | 0.0253 ± 5e-05
318.15 K, c1 = 0.003846 | 0.0367 ± 7e-05
318.15 K, c1 = 0.005063 | 0.0466 ± 9e-05
318.15 K, c1 = 0.00625 | 0.0564 ± 0.00011
318.15 K, c1 = 0.007407 | 0.0659 ± 0.00013
318.15 K, c1 = 0.008536 | 0.0745 ± 0.00015
318.15 K, c1 = 0.009638 | 0.0838 ± 0.00017
318.15 K, c1 = 0.01071 | 0.0921 ± 0.00018
318.15 K, c1 = 0.01176 | 0.0993 ± 0.0002
318.15 K, c1 = 0.01279 | 0.1064 ± 0.00021
318.15 K, c1 = 0.01379 | 0.1119 ± 0.00022
318.15 K, c1 = 0.01477 | 0.1156 ± 0.00023
318.15 K, c1 = 0.01573 | 0.1188 ± 0.00024
318.15 K, c1 = 0.01667 | 0.1218 ± 0.00024
318.15 K, c1 = 0.01803 | 0.1263 ± 0.00025
318.15 K, c1 = 0.01935 | 0.1307 ± 0.00026
318.15 K, c1 = 0.02105 | 0.1349 ± 0.00027
318.15 K, c1 = 0.02268 | 0.14 ± 0.00028
318.15 K, c1 = 0.02424 | 0.1434 ± 0.00029
318.15 K, c1 = 0.02574 | 0.1473 ± 0.00029

— the NIST ThermoML archive (doi:10.1021/je900916e)
